Results published in PubChem BioAssay (NCI).
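These data come from cells grown in 96-well plates and exposed to compound for 48 hours at five concentrations. Here, GI50 denotes the concentration required for 50% inhibition of growth. The concentration for full growth arrest is given as TGI.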

How the values were obtained:
Experiment in all cases: inhibition of tumour cell growth, NCI panel, 48 h
786-0 renal = test system: 786-0 renal
A498 renal = test system: A498 renal
ACHN renal = test system: ACHN renal
CAKI-1 renal = test system: CAKI-1 renal
CCRF-CEM leukemia = test system: CCRF-CEM leukemia
DU-145 prostate = test system: DU-145 prostate
EKVX NSCLC = test system: EKVX NSCLC
HCT-116 colon = test system: HCT-116 colon
HCT-15 colon = test system: HCT-15 colon
HL-60(TB) leukemia = test system: HL-60(TB) leukemia
HOP-62 NSCLC = test system: HOP-62 NSCLC
HS 578T breast = test system: HS 578T breast
HT29 colon = test system: HT29 colon
IGROV1 ovarian = test system: IGROV1 ovarian
K-562 leukemia = test system: K-562 leukemia
KM12 colon = test system: KM12 colon
LOX IMVI melanoma = test system: LOX IMVI melanoma
M14 melanoma = test system: M14 melanoma
MCF7 breast = test system: MCF7 breast
MDA-MB-435 = test system: MDA-MB-435
MDA-N = test system: MDA-N
MOLT-4 leukemia = test system: MOLT-4 leukemia
NCI-H226 lung = test system: NCI-H226 lung
NCI-H23 lung = test system: NCI-H23 lung
NCI-H460 lung = test system: NCI-H460 lung
NCI-H522 lung = test system: NCI-H522 lung
NCI/ADR-RES ovarian = test system: NCI/ADR-RES ovarian
OVCAR-3 ovarian = test system: OVCAR-3 ovarian
OVCAR-4 ovarian = test system: OVCAR-4 ovarian
OVCAR-5 ovarian = test system: OVCAR-5 ovarian
OVCAR-8 ovarian = test system: OVCAR-8 ovarian
RPMI-8226 leukemia = test system: RPMI-8226 leukemia
RXF 393 renal = test system: RXF 393 renal
SF-268 CNS = test system: SF-268 CNS
SF-295 CNS = test system: SF-295 CNS
SF-539 CNS = test system: SF-539 CNS
SK-MEL-28 melanoma = test system: SK-MEL-28 melanoma
SK-MEL-5 melanoma = test system: SK-MEL-5 melanoma
SK-OV-3 ovarian = test system: SK-OV-3 ovarian
SR leukemia = test system: SR leukemia
SW-620 colon = test system: SW-620 colon
T-47D breast = test system: T-47D breast
TK-10 renal = test system: TK-10 renal
UACC-257 melanoma = test system: UACC-257 melanoma
UO-31 renal = test system: UO-31 renal
A549 NSCLC = test system: A549 NSCLC
COLO 205 colon = test system: COLO 205 colon
HCC-2998 colon = test system: HCC-2998 colon
HOP-92 NSCLC = test system: HOP-92 NSCLC
MALME-3M melanoma = test system: MALME-3M melanoma
MDA-MB-231 breast = test system: MDA-MB-231 breast
PC-3 prostate = test system: PC-3 prostate
SK-MEL-2 melanoma = test system: SK-MEL-2 melanoma
SN12C renal = test system: SN12C renal
SNB-19 CNS = test system: SNB-19 CNS
SNB-75 CNS = test system: SNB-75 CNS
U251 CNS = test system: U251 CNS
UACC-62 melanoma = test system: UACC-62 melanoma
BT-549 breast = test system: BT-549 breast

## CC1=NN(c2cccc(Cl)c2)C(=N/c2nc3ccccc3s2)/C1=C\C=C\c1ccccc1
786-0 renal
  TGI: > 100 µM
A498 renal
  TGI: 75.5 µM
ACHN renal
  TGI: 88.2 µM
CAKI-1 renal
  TGI: > 100 µM
CCRF-CEM leukemia
  TGI: > 100 µM
DU-145 prostate
  TGI: > 100 µM
EKVX NSCLC
  TGI: > 100 µM
HCT-116 colon
  TGI: > 100 µM
HCT-15 colon
  TGI: > 100 µM
HL-60(TB) leukemia
  TGI: 92.8 µM
HOP-62 NSCLC
  TGI: > 100 µM
HS 578T breast
  TGI: 87.6 µM
HT29 colon
  TGI: > 100 µM
IGROV1 ovarian
  TGI: 82.8 µM
K-562 leukemia
  TGI: > 100 µM
KM12 colon
  TGI: > 100 µM
LOX IMVI melanoma
  TGI: > 100 µM
M14 melanoma
  TGI: > 100 µM
MCF7 breast
  TGI: > 100 µM
MDA-MB-435
  TGI: > 100 µM
MDA-N
  TGI: > 100 µM
MOLT-4 leukemia
  TGI: 3.48 µM
NCI-H226 lung
  TGI: > 100 µM
NCI-H23 lung
  TGI: > 100 µM
NCI-H460 lung
  TGI: > 100 µM
NCI-H522 lung
  TGI: 92.3 µM
NCI/ADR-RES ovarian
  TGI: > 100 µM
OVCAR-3 ovarian
  TGI: 78.9 µM
OVCAR-4 ovarian
  TGI: > 100 µM
OVCAR-5 ovarian
  TGI: > 100 µM
OVCAR-8 ovarian
  TGI: > 100 µM
RPMI-8226 leukemia
  TGI: 81.2 µM
RXF 393 renal
  TGI: > 100 µM
SF-268 CNS
  TGI: > 100 µM
SF-295 CNS
  TGI: > 100 µM
SF-539 CNS
  TGI: > 100 µM
SK-MEL-28 melanoma
  TGI: > 100 µM
SK-MEL-5 melanoma
  TGI: 59.2 µM
SK-OV-3 ovarian
  TGI: > 100 µM
SR leukemia
  TGI: 25.9 µM
SW-620 colon
  TGI: > 100 µM
T-47D breast
  TGI: > 100 µM
TK-10 renal
  TGI: > 100 µM
UACC-257 melanoma
  TGI: > 100 µM
UO-31 renal
  TGI: > 100 µM

## CCN(CC)C(=O)C1=C(C)NC(C)=C(C(=O)N(CC)CC)C1
786-0 renal
  TGI: > 100 µM
A498 renal
  TGI: > 100 µM
A549 NSCLC
  TGI: > 100 µM
ACHN renal
  TGI: > 100 µM
CAKI-1 renal
  TGI: > 100 µM
CCRF-CEM leukemia
  TGI: > 100 µM
COLO 205 colon
  TGI: > 100 µM
DU-145 prostate
  TGI: > 100 µM
EKVX NSCLC
  TGI: > 100 µM
HCC-2998 colon
  TGI: > 100 µM
HCT-116 colon
  TGI: > 100 µM
HCT-15 colon
  TGI: > 100 µM
HL-60(TB) leukemia
  TGI: > 100 µM
HOP-62 NSCLC
  TGI: > 100 µM
HOP-92 NSCLC
  TGI: > 100 µM
HS 578T breast
  TGI: > 100 µM
IGROV1 ovarian
  TGI: > 100 µM
K-562 leukemia
  TGI: > 100 µM
KM12 colon
  TGI: > 100 µM
LOX IMVI melanoma
  TGI: > 100 µM
M14 melanoma
  TGI: > 100 µM
MALME-3M melanoma
  TGI: > 100 µM
MCF7 breast
  TGI: > 100 µM
MDA-MB-231 breast
  TGI: > 100 µM
MDA-MB-435
  TGI: > 100 µM
MDA-N
  TGI: > 100 µM
MOLT-4 leukemia
  TGI: > 100 µM
NCI-H23 lung
  TGI: > 100 µM
NCI-H460 lung
  TGI: > 100 µM
NCI-H522 lung
  TGI: > 100 µM
OVCAR-3 ovarian
  TGI: > 100 µM
OVCAR-4 ovarian
  TGI: > 100 µM
OVCAR-5 ovarian
  TGI: > 100 µM
PC-3 prostate
  TGI: > 100 µM
RPMI-8226 leukemia
  TGI: > 100 µM
RXF 393 renal
  TGI: > 100 µM
SF-268 CNS
  TGI: > 100 µM
SF-295 CNS
  TGI: > 100 µM
SF-539 CNS
  TGI: > 100 µM
SK-MEL-2 melanoma
  TGI: > 100 µM
SK-MEL-28 melanoma
  TGI: > 100 µM
SK-MEL-5 melanoma
  TGI: > 100 µM
SK-OV-3 ovarian
  TGI: > 100 µM
SN12C renal
  TGI: > 100 µM
SNB-19 CNS
  TGI: > 100 µM
SNB-75 CNS
  TGI: 93.4 µM
SR leukemia
  TGI: > 100 µM
SW-620 colon
  TGI: > 100 µM
T-47D breast
  TGI: > 100 µM
TK-10 renal
  TGI: > 100 µM
U251 CNS
  TGI: > 100 µM
UACC-257 melanoma
  TGI: > 100 µM
UACC-62 melanoma
  TGI: > 100 µM
UO-31 renal
  TGI: > 100 µM

## COc1cccc(C2=NN(C(C)=O)C(c3cc(OC)c(OC)c(OC)c3)C2)c1 (centres undefined)
786-0 renal
  GI50: 2.63 µM
  TGI: > 20.6 µM
A498 renal
  GI50: 6.44 µM
  TGI: > 30 µM
A549 NSCLC
  GI50: 6.15 µM
  TGI: > 100 µM
ACHN renal
  GI50: 16 µM
  TGI: > 100 µM
BT-549 breast
  GI50: 5.57 µM
  TGI: > 100 µM
CAKI-1 renal
  GI50: 2.79 µM
  TGI: > 100 µM
CCRF-CEM leukemia
  GI50: 0.921 µM
  TGI: 5.61 µM
COLO 205 colon
  GI50: 3.35 µM
  TGI: 12.3 µM
DU-145 prostate
  GI50: 2.87 µM
  TGI: > 100 µM
EKVX NSCLC
  GI50: 4.96 µM
  TGI: > 100 µM
HCC-2998 colon
  GI50: 2.26 µM
  TGI: 16 µM
HCT-116 colon
  GI50: 2.59 µM
  TGI: > 100 µM
HCT-15 colon
  GI50: 1.42 µM
  TGI: > 100 µM
HL-60(TB) leukemia
  GI50: 1.55 µM
  TGI: 6.51 µM
HOP-62 NSCLC
  GI50: 0.827 µM
HOP-92 NSCLC
  GI50: 14.9 µM
  TGI: > 100 µM
HS 578T breast
  GI50: 1.36 µM
  TGI: 5.11 µM
HT29 colon
  GI50: 3.1 µM
  TGI: > 100 µM
IGROV1 ovarian
  GI50: 4.08 µM
  TGI: > 72.1 µM
K-562 leukemia
  GI50: 0.9 µM
  TGI: > 84.5 µM
KM12 colon
  GI50: 1.48 µM
  TGI: > 100 µM
LOX IMVI melanoma
  GI50: 7.22 µM
  TGI: > 100 µM
M14 melanoma
  GI50: 1.47 µM
  TGI: > 100 µM
MALME-3M melanoma
  GI50: 2.47 µM
  TGI: > 100 µM
MCF7 breast
  GI50: 0.529 µM
  TGI: > 32.3 µM
MDA-MB-231 breast
  GI50: 8.82 µM
  TGI: > 100 µM
MDA-MB-435
  GI50: 0.224 µM
  TGI: 0.782 µM
MOLT-4 leukemia
  GI50: 3.67 µM
  TGI: > 100 µM
NCI-H226 lung
  GI50: > 100 µM
  TGI: > 100 µM
NCI-H23 lung
  GI50: 3.48 µM
  TGI: > 100 µM
NCI-H460 lung
  GI50: 2.14 µM
  TGI: 11.2 µM
NCI-H522 lung
  GI50: 3.97 µM
  TGI: > 66.3 µM
NCI/ADR-RES ovarian
  GI50: 1.9 µM
  TGI: > 20.1 µM
OVCAR-3 ovarian
  GI50: 1.09 µM
  TGI: 3.8 µM
OVCAR-4 ovarian
  GI50: 6.88 µM
  TGI: > 100 µM
OVCAR-5 ovarian
  GI50: 8.09 µM
  TGI: > 100 µM
OVCAR-8 ovarian
  GI50: 5.1 µM
  TGI: > 100 µM
PC-3 prostate
  GI50: 1.71 µM
  TGI: > 100 µM
RPMI-8226 leukemia
  GI50: 1.08 µM
  TGI: 4.36 µM
RXF 393 renal
  GI50: 4.02 µM
  TGI: > 100 µM
SF-268 CNS
  GI50: 10.8 µM
  TGI: > 100 µM
SF-295 CNS
  GI50: 0.576 µM
  TGI: 3.98 µM
SF-539 CNS
  GI50: 2.81 µM
  TGI: > 25.7 µM
SK-MEL-2 melanoma
  GI50: 23.8 µM
  TGI: > 100 µM
SK-MEL-28 melanoma
  GI50: > 22.8 µM
  TGI: > 100 µM
SK-MEL-5 melanoma
  GI50: 0.829 µM
  TGI: 10.2 µM
SK-OV-3 ovarian
  GI50: 3.04 µM
  TGI: > 47.7 µM
SN12C renal
  GI50: 5.69 µM
  TGI: > 100 µM
SNB-19 CNS
  GI50: 3.18 µM
  TGI: > 100 µM
SNB-75 CNS
  GI50: 1.73 µM
  TGI: > 100 µM
SR leukemia
  GI50: 0.437 µM
  TGI: > 100 µM
SW-620 colon
  GI50: 0.668 µM
  TGI: > 100 µM
T-47D breast
  GI50: 4.49 µM
  TGI: > 100 µM
TK-10 renal
  GI50: 25.8 µM
  TGI: > 100 µM
U251 CNS
  GI50: 3.37 µM
  TGI: > 100 µM
UACC-257 melanoma
  GI50: > 100 µM
  TGI: > 100 µM
UACC-62 melanoma
  GI50: 3.85 µM
  TGI: > 100 µM
UO-31 renal
  GI50: 7.65 µM
  TGI: > 100 µM
